# Assay results published in patent US10556860B2, “hTERT modulators and methods of use” (Arizona Board of Regents on Behalf of the University of …, priority 2015, dated 2020).
# How the values were obtained:
# [1] = test system: G124/125A mutant hTERT G-quadruplex; test: CD melting (Tm), G124/125A mutant; type: binding, human; settings: 2 equiv
# Experimental: (§1) Circular dichroism. Oligomers of WT, G124A, G124/125A, G138/139A and G146A were synthesized and HPSF-purified by MGW Operon, Inc. For CD analysis, oligomers (5 μM) in a buffer containing 10 mM Tris-HCl (pH 7.5) and 140 mM KCl were annealed. For the CD analysis of the complex of oligomers and compounds, oligomers (5 μM) in a buffer containing 10 mM Tris-HCl (pH 7.5) and 5 mM KCl for GTC365 or 1 mM KCl for BRACO-19 were annealed. Oligomers and GTC365 or BRACO-19 were incubated overnight at room temperature. For the full-length of C-rich strand, the oligomer in a buffer of 10 mM Na cacodylate (pH 6.6) was annealed and then incubated with GTC365 overnight. CD analysis was conducted on a Jasco 810 spectropolarimeter (Jasco, Easton, Md.) using a quartz cell with 1 mm of path length, 1 nm of band width, and 1 s of response time for spectra at 20° C. Melting curves for the determination of Tm were obtained by recording ellipticity at 262 nm with increasing temperatures from 25° C. to 95° C. at a rate of 1.6° C./min. Tm of the C-rich strand with GTC365 was obtained from the CD signal at 286 nm within 10-60° C.
# (§2) CD and DMS footprinting analyses were conducted to characterize the binding of GTC365 and BRACO-19 to the 5-12 G-quadruplex. […] To verify the effects of compounds on the thermal stability of the WT and the mutant G-quadruplexes, Tms were determined by CD. […]
# [2] = test system: G146A mutant hTERT G-quadruplex; test: CD melting (Tm), G146A mutant; type: binding, human; settings: 2 equiv
# Experimental: as §1, §2
# [3] = test system: i-motif formed from the full-length C-rich strand of hTERT promoter; test: CD melting (Tm), i-motif; type: binding, human; settings: pH 6.6
# Experimental: as §1
# In contrast, BRACO-19 increased the Tm of telomeric G-quadruplex by ˜60% compared to that of the hTERT G-quadruplex at 0.5 and 1 equiv. A summary of the comparative Tms of GTC365 and BRACO-19 in hTERT and telomeric DNA is shown below.
# caspase-3 = test: Caspase assay in MCF7 cells; type: cell-based, human; settings: 0.5-1 μM, 48 h, relative to DMSO
# Experimental: Caspase assay. MCF7 cells in a 6-well plate were treated with GTC365 for 48 h. The caspase-3 assay was conducted using an Apoalert Caspase 3 Fluorescent Assay Kit (Clontech) with DEVD-AFC as a substrate of capase-3 following the manufacturer's instruction. Fluorescence intensity of released AFC was measured using a BioTek Synergy HT with excitation at 400 nm and emission at 505 nm. The relative caspase-3 activity compared to the DMSO was obtained.
# Indeed at 0.5-1 μM, the BAX/BCL2 ratio was increased by over 2-fold and the capase-3 activity was increased by 47% (FIGS. 11 and 12).
# [4] = test system: hTERT mRNA in melanoma cell line (UACC-903); test: qPCR of hTERT expression in G124A mutant melanoma cell line; type: cell-based, human; settings: 5 μM, 72 h
# Experimental: FIGS. 13A-13C are a set of graphs showingselective reduction in viability (A) and hTERT expression (B) in melanoma cells carrying hTERT core promotor mutations. NHM-002 (normal human melanocytes) and a G124A mutant cell line were treated with vehicle, 1.25, 2.5, and 5 μM GTC365 for 72 h. Viability was reduced in hTERT mutant melanoma cells by 50% (left). […] (C) Differential response to GTC365 in WT and promoter mutant cell lines.
# Next, to assess the selectivity of GTC365 for hTERT-dependent cancer cells relative to normal precursorcells, we compared the effects of a range of […] on viability at 72 h in normal humanmelanocytes (NHM-002) relative to those of UACC-903, aG124A mutant (FIG. 13A). […] To confirm that the reduction in cell viability was aresult of hTERT downregulation, we performed reverse transcription and qPCR to measure the mRNA level of hTERT expression in cells treated with DMSO or 5 μMGTC365. hTERT expression was reduced by 41% in themelanoma cell line after 72 h but was undetectable in normalmelanocytes, even in the absence of GTC365 (FIG. 13B). Finally, tobroadly assess the selectivity of GTC365 for hTERT promotermutant versus WT cells, we conducted a 6-point 72 h MTSproliferation assay to determine EC50s in 14 additional melanoma cell lines with characterized TERT promoter status([…]) (FIG. 13C). […]
# MCF7 cells = test: Counting of live cells treated with GTC365; type: cell-based, human; settings: low dose, nine days
# Experimental: Counting of live cells treated with GTC365. MCF7 cells were treated with DMSO or 0.5 μM of GTC365. Cells were trypsinized and then subjected to trypan blue exclusion staining for counting of live cells using microscopy every three days. Afterward, 70% of cells were recultured with fresh media and DMSO or GTC365. Relative cell numbers compared to the DMSO were obtained.
# Since knockdown of hTERT arrests the cell cycle in the G0/G1 phase, the effects of GTC365 on the cell cycle were evaluated. GTC365 increased the population of the G0/G1 (from 57% to 71%) and G2/M phases (from 10% to 19%), whereas the S-phase was decreased (from 33% to 10%) in a dose-dependent manner with 48 h treatment. […] It is known that various anticancer drugs induce SLP in different cancer cells, leading to mitotic catastrophe as well as apoptotic cell death. Doxorubicin, one of the representative anticancer drugs, induced apoptosis and mitotic catastrophe accompanied by multiple nuclei with SLP. GTC365, like doxorubicin, appears to arrest cell proliferation and induce cell death, apoptosis, or mitotic catastrophe through downregulation of hTERT.
structure (smiles),measurement,setting,value
N=C(N)NCCCS(=O)(=O)Nc1ccc(Nc2c3ccccc3nc3cc([N+](=O)[O-])ccc23)cc1 [GTC365],Tm more increased compared to the WT,[1],6-7 °C
same,Tm more increased compared to the WT,[2],6-7 °C
same,change in Tm of the i-motif,[3],little change in Tm
same,increase of caspase-3 activity,caspase-3,47%
same,reduction of hTERT expression (mRNA),[4],41%
same,cell death of cells showing SLP,MCF7 cells,underwent cell death
